Results reported in patent US12319655B2, “RAF kinase inhibitors and methods of use thereof” (Deciphera Pharmaceuticals, LLC, priority 2021, dated 2025).
pIC50: −log10 of the molar value.

Columns and labels:
[1] = target: B-Raf (V600E) (SEQ. ID NO: 4) kinase (Homo sapiens (Human), UniProt P15056, V600E); assay: Biochemical Assay for B-Raf (V600E) (1); conditions: Table J, BRAF V600E, biochemical assay (1); read-out: BRAF VE (1)
Method in brief: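 Coupled pyruvate kinase/lactate dehydrogenase assay: 0.03 nM B-Raf V600E, 30.1 nM MEK, 1 mM ATP, pH 7.5 Tris/MgCl2 buffer, 1% DMSO. NADH oxidation followed at 340 nm for 6 h at 30 °C; rate from 3–4 h converted to percent inhibition, IC50 by four-parameter fit.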

[2] = target: A-Raf kinase (SEQ. ID No: 1) (Homo sapiens (Human), UniProt P10398, Y301D/Y302D); assay: Biochemical Assay for A-Raf (2); conditions: Table J, biochemical assay (2); read-out: ARAF (2)
Sequence of A-Raf kinase (SEQ. ID No: 1) (P10398 other isoform, or with tags, fused parts or gaps Y301D (already in the parent)/Y302D (already in the parent)): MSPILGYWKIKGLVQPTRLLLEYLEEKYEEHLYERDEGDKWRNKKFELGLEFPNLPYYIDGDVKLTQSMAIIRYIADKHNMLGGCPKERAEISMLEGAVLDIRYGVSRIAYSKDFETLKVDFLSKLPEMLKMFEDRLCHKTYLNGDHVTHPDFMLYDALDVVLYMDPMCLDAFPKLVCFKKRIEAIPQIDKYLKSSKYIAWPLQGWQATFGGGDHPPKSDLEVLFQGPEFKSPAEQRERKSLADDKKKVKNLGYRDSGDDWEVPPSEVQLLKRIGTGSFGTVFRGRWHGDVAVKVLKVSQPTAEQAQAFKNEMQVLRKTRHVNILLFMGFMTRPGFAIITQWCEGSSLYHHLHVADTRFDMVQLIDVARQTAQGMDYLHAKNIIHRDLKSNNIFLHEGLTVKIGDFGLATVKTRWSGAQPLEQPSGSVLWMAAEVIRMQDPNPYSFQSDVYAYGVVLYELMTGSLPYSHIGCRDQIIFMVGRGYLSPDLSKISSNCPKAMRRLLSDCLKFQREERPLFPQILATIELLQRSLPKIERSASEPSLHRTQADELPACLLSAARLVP
Experimental: Biochemical Assay for A-Raf (2)
Activity of A-Raf kinase (SEQ. ID No: 1) was determined spectroscopically using a coupled pyruvate kinase/lactate dehydrogenase assay that continuously monitors the ATP hydrolysis-dependent oxidation of NADH (e.g., Schindler et al., Science, 2000, 289, 1938-1942). Assays were conducted in 384-well plates (25 μL final volume) using 20 nM A-Raf (Eurofins), 1.5 units pyruvate kinase, 2.1 units lactate dehydrogenase, 1 mM phosphoenol pyruvate, 0.7 mM NADH, 100 nM MEK (SignalChem), and 1 mM ATP in assay buffer (100 mM Tris, pH 7.5, 15 mM MgCl2, 0.5 mM DTT, 0.1% octyl-glucoside, 0.002% (w/v) BSA, and 0.002% Triton X-100). Inhibition of A-Raf was measured by adding serial diluted test compound (final assay concentration of 1% DMSO). A decrease in absorption at 340 nm was monitored hourly for 4 h at 30° C. on a multi-mode microplate reader (BioTek). The reaction rate was calculated using the 3 to 4 h time frame. The reaction rate at each concentration of compound was converted to percent inhibition using controls (i.e., reaction with no test compound and reaction with a known inhibitor) and IC50 values were calculated by fitting a four-parameter sigmoidal curve to the data using Prism (GraphPad software).

[3] = system: H2405 cells; assay: H2405 Cell Proliferation Assay (2); assay type: cell-based; conditions: Homo sapiens, NCI-H2405
Experimental: H2405 Cell Proliferation Assay (2)
H2405 cells (catalog #CRL-5994) are obtained from the American Type Culture Collect (ATTC, Manassas, VA). Briefly, cells were grown in RPMI 1640 supplemented with 5% characterized fetal bovine serum (Invitrogen, Carlsbad, CA) and 1% Penicillin/Streptomycin/L-Glutamine at 37° C., 5% CO2, and 95% humidity. Cells are expanded until reaching 70-95% confluency at which point they are sub-cultured or harvested for assay use. A serial dilution of test compound is dispensed into a 384-well black clear bottom plate in triplicate. Seven hundred fifty cells are added per well in 50 μL complete growth medium in the 384-well plate. Plates are incubated for 67-72 h at 37° C., 5% CO2, and 95% humidity. At the end of the incubation, 10 μL of a 440 μM solution of resazurin (Sigma, St. Louis, MO) in PBS is added to each well of the plate and plates are incubated for an additional 5-6 h at 37° C., 5% CO2, and 95% humidity. Plates are read on a Synergy2 or equivalent reader (Biotek, Winooski VT) using an excitation of 540 nm and an emission of 600 nm. Data is analyzed using Prism software (GraphPad, San Diego, CA) to calculate IC50 values

[4] = system: A375 cells; assay: A375 Cell Proliferation Assay (2); assay type: cell-based; conditions: Homo sapiens, A-375
Experimental: A375 Cell Proliferation Assay (2)
A375 cells (catalog (#CRL-1619) are obtained from the American Type Culture Collect (ATTC, Manassas, VA). Briefly, cells were grown in DMEM High Glucose supplemented with 10% characterized fetal bovine serum (Invitrogen, Carlsbad, CA) and 1% Penicillin/Streptomycin/L-Glutamine at 37° C., 5% CO2, and 95% humidity. Cells are expanded until reaching 70-95% confluency at which point they are sub-cultured or harvested for assay use. Using the Beckman Coulter Echo 650, a serial dilution of test compound is dispensed into a 384-well black clear bottom plate in triplicate. Six hundred twenty-five cells are added per well in 50 μL complete growth medium in the 384-well plate. Plates are incubated for 67-72 h at 37° C., 5% CO2, and 95% humidity. At the end of the incubation, 10 μL of a 440 μM solution of resazurin (Sigma, St. Louis, MO) in PBS is added to each well of the plate and plates are incubated for an additional 3-6 h at 37° C., 5% CO2, and 95% humidity. Plates are read on a Synergy2 or equivalent reader (Biotek, Winooski VT) using an excitation of 540 nm and an emission of 600 nm. Data is analyzed using Prism software (GraphPad, San Diego, CA) to calculate IC50 values.

Sequence of B-Raf (V600E) (SEQ. ID NO: 4) kinase (P15056 416-766 V600E): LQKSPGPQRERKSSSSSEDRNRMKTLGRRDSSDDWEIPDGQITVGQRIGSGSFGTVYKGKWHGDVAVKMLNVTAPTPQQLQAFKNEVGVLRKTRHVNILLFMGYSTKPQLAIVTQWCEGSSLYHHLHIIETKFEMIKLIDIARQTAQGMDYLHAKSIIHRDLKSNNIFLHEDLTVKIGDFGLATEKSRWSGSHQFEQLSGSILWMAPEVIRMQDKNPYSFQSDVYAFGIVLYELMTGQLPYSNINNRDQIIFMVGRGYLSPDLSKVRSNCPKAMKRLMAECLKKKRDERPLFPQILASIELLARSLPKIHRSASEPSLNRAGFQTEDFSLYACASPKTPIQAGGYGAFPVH

Row | SMILES | pIC50 [1] | other results
1 | COC(=O)Nc1cc(-c2cccc(-c3cc(NC(=O)c4ccnc(C(C)(C)F)c4)cnc3C)c2)ncn1 [Example 404] | ≥ 7.00 | –
2 | COC(=O)Nc1cc(-c2cncc(-c3cc(NC(=O)c4ccnc(C5(C#N)CC5)c4)ccc3C)c2)ncn1 [Example 405] | ≥ 7.00 | –
3 | Cc1ncc(NC(=O)c2ccnc(C(C)(C)F)c2)cc1-c1cncc(-c2cc(NC(=O)C3CC3)ncn2)c1 [Example 406] | ≥ 7.00 | –
4 | Cc1ncc(NC(=O)c2ccnc(C(C)(C)C#N)c2)cc1-c1cccc(-c2cnc3ccccn23)c1 [Example 407] | 6.30 to 7.00 | –
5 | CNC(=O)c1cc(-c2cncc(-c3cc(NC(=O)c4ccnc(C(C)(C)F)c4)c(F)cc3C)c2)ccn1 [Example 408] | ≥ 7.00 | –
6 | COC(=O)Nc1cc(-c2cnnc(-c3cc(NC(=O)c4cn(C(C)C)nn4)ccc3C)c2)ccn1 [Example 409] | 6.00 to 6.30 | –
7 | Cc1ncc(NC(=O)c2ccnc(C(C)(C)C#N)c2)cc1-c1cncc(-c2cc(NC(=O)C3CC3)ncn2)c1 [Example 410] | ≥ 7.00 | –
8 | Cc1ccc(NC(=O)c2ccnc(C(C)(C)F)c2)cc1-c1cncc(-c2cc(N)ncn2)c1 [Example 411] | ≥ 7.00 | –
9 | Cc1ccc(NC(=O)c2cn(C(C)C)nn2)cc1-c1cncc(-c2cc(NC(=O)C3CC3)ncn2)c1 [Example 412] | ≥ 7.00 | –
10 | CNC(=O)c1cc(-c2cncc(-c3cc(NC(=O)c4ccnc(C(C)(C)F)c4)ccc3C)c2)ccn1 [Example 413] | ≥ 7.00 | –
11 | COC(=O)Nc1cc(-c2cncc(-c3cc(NC(=O)c4ccnc(C(C)(C)C#N)c4)ccc3C)c2)ncn1 [Example 414] | ≥ 7.00 | –
12 | COC(=O)Nc1cc(-c2cccc(-c3cc(NC(=O)Cn4cc(C(C)C)nn4)cnc3C)c2)ccn1 [Example 415] | 5.00 to 6.00 | –
13 | COC(=O)Nc1cc(-c2cc(-c3cc(NC(=O)c4ccnc(C(C)(C)F)c4)ccc3C)nc(C)n2)ccn1 [Example 416] | ≥ 7.00 | –
14 | Cc1ccc(NC(=O)c2ccnc(C(C)(C)F)c2)cc1-c1cncc(-c2ccnc(NC(=O)C3CC3)c2)c1 [Example 417] | ≥ 7.00 | –
15 | Cc1cc(F)c(NC(=O)c2ccnc(C(C)(C)C#N)c2)cc1-c1cncc(-c2ccnc(NC(=O)C3CC3)c2)c1 [Example 418] | ≥ 7.00 | –
16 | Cc1ccc(NC(=O)c2ccnc(C(C)(F)F)c2)cc1-c1cncc(-c2cc(NC(=O)C3CC3)ncn2)c1 [Example 419] | ≥ 7.00 | –
17 | Cc1ccc(NC(=O)c2ccnc(C(C)(C)C#N)c2)cc1-c1cncc(-c2cc(NC(=O)C(C)C)ncn2)c1 [Example 420] | ≥ 7.00 | –
18 | Cc1ccc(NC(=O)c2cc(C3CC3)on2)cc1-c1cncc(-c2cc(NC(=O)C3CC3)ncn2)c1 [Example 421] | ≥ 7.00 | –
19 | Cc1ccc(NC(=O)c2ccnc(C(C)(C)C#N)c2)cc1-c1cncc(-c2cc(N)ncn2)c1 [Example 422] | ≥ 7.00 | –
20 | Cc1cc(F)c(NC(=O)c2ccnc(C(C)(C)F)c2)cc1-c1cncc(-c2cc(NC(=O)C3CC3)ncn2)c1 [Example 423] | ≥ 7.00 | –
21 | Cc1cc(F)c(NC(=O)c2ccnc(C(C)(C)C#N)c2)cc1-c1cncc(-c2cc(NC(=O)C3CC3)ncn2)c1 [Example 424] | ≥ 7.00 | –
22 | COC(=O)Nc1cc(-c2cncc(-c3cc(NC(=O)c4ccnc(C(C)(C)F)c4)ccc3C)c2)ncn1 [Example 425] | ≥ 7.00 | –
23 | CNC(=O)c1cc(-c2nccc(-c3cc(NC(=O)c4ccnc(C(C)(C)F)c4)c(F)cc3C)n2)ccn1 [Example 427] | ≥ 7.00 | –

Row | SMILES | pIC50 [1] | other results
24 | CNC(=O)c1cc(-c2cc(-c3cc(NC(=O)c4ccnc(C(C)(C)F)c4)ccc3C)nc(C)n2)ccn1 [Example 428] | ≥ 7.00 | –
25 | Cc1ccc(NC(=O)c2ccnc(C(F)F)c2)cc1-c1cncc(-c2cc(NC(=O)C3CC3)ncn2)c1 [Example 429] | ≥ 7.00 | –
26 | Cc1ccc(NC(=O)c2cnn(C3CC3)c2)cc1-c1cncc(-c2cc(NC(=O)C3CC3)ncn2)c1 [Example 430] | ≥ 7.00 | –
27 | Cc1ccc(NC(=O)c2cc(C(C)(C)C)on2)cc1-c1cncc(-c2cc(NC(=O)C3CC3)ncn2)c1 [Example 431] | ≥ 7.00 | –
28 | Cc1ccc(NC(=O)c2ccnc(C(C)(C)F)c2)cc1-c1cncc(-c2ccnc3c2CC(=O)N3)c1 [Example 432] | ≥ 7.00 | –
29 | Cc1ncc(NC(=O)c2ccnc(C(C)(C)F)c2)cc1-c1cncc(-c2ccnc(NC(=O)C3CC3)c2)c1 [Example 433] | ≥ 7.00 | –
30 | Cc1ccc(NC(=O)c2ccnc(C(C)C)c2)cc1-c1cncc(-c2cc(NC(=O)C3CC3)ncn2)c1 [Example 434] | ≥ 7.00 | –
31 | COC(=O)Nc1cc(-c2cncc(-c3cc(NC(=O)c4ccnc(C(C)(C)F)c4)ccc3C)c2)ccn1 [Example 435] | ≥ 7.00 | –
32 | Cc1ccc(NC(=O)c2cc(C3CC3)n(C)n2)cc1-c1nccc(-c2ccnc(NC(=O)C3CC3)c2)n1 [Example 436] | ≥ 7.00 | –
33 | CNC(=O)c1cc(-c2cc(-c3cc(NC(=O)c4ccnc(C(C)(C)C#N)c4)ccc3OC)ccn2)ccn1 [Example 437] | ≥ 7.00 | –
34 | COc1ccc(NC(=O)c2ccnc(C(C)(C)C#N)c2)cc1-c1cccc(-c2cc(NC(=O)C3CC3)ncn2)c1 [Example 438] | ≥ 7.00 | –
35 | CNC(=O)c1cc(-c2cncc(-c3cc(NC(=O)c4ccnc(C(C)(F)F)c4)ccc3C)c2)ncn1 [Example 439] | – | pIC50 [2]: 5.00 to 6.00; pIC50 [3]: 6.30 to 7.00; pIC50 [4]: 6.30 to 7.00
36 | CNC(=O)c1cc(-c2cncc(-c3cc(NC(=O)c4ccnc(C(C)(F)F)c4)ccc3C)c2)ccn1 [Example 440] | – | pIC50 [2]: 5.00 to 6.00; pIC50 [3]: 6.30 to 7.00; pIC50 [4]: 6.30 to 7.00
37 | CNC(=O)c1cc(-c2cc(-c3cc(NC(=O)c4ccnc(C(C)(F)F)c4)ccc3C)ccn2)ccn1 [Example 441] | – | pIC50 [2]: 6.00 to 6.30; pIC50 [3]: ≥ 7.00; pIC50 [4]: ≥ 7.00
38 | CNC(=O)c1cc(-c2cncc(-c3cc(NC(=O)c4ccnc(C(C)(C)C#N)c4)ccc3C)c2)ccn1 [Example 442] | – | pIC50 [2]: 5.00 to 6.00; pIC50 [3]: ≥ 7.00; pIC50 [4]: ≥ 7.00
39 | CNC(=O)c1cc(-c2cc(-c3cc(NC(=O)c4ccnc(C(C)C)c4)ccc3C)ccn2)ccn1 [Example 443] | – | pIC50 [2]: 6.00 to 6.30; pIC50 [3]: ≥ 7.00; pIC50 [4]: 6.30 to 7.00
40 | CNC(=O)c1cc(-c2cc(-c3cc(NC(=O)c4ccnc(C(C)(C)F)c4)cnc3C)ccn2)ccn1 [Example 444] | – | pIC50 [2]: 5.00 to 6.00; pIC50 [4]: 6.30 to 7.00
41 | CNC(=O)c1cc(-c2cncc(-c3cc(NC(=O)c4ccnc(C(C)C)c4)ccc3C)c2)ccn1 [Example 445] | – | pIC50 [2]: 6.00 to 6.30; pIC50 [3]: ≥ 7.00; pIC50 [4]: 6.30 to 7.00
42 | Cc1ccc(NC(=O)c2ccnc(C(C)(C)F)c2)cc1-c1ccnc(-c2ccnc(C#N)c2)c1 [Example 447] | – | pIC50 [2]: 5.00 to 6.00; pIC50 [4]: 5.00 to 6.00
43 | Cc1ccc(NC(=O)c2ccnc(C(C)(C)F)c2)cc1-c1ccnc(-c2ccnc(C(=O)NCC#N)c2)c1 [Example 451] | – | pIC50 [2]: 5.00 to 6.00; pIC50 [4]: ≥ 7.00
44 | CNC(=O)c1cc(-c2cc(-c3cc(NC(=O)c4ccnc(C(C)(F)F)c4)cnc3C)ccn2)ccn1 [Example 463] | – | pIC50 [2]: 5.00 to 6.00; pIC50 [4]: 6.00 to 6.30
45 | CNC(=O)c1cc(-c2cc(-c3cc(NC(=O)c4ccnc(C5(C#N)CC5)c4)cnc3C)ccn2)ccn1 [Example 464] | – | pIC50 [2]: 6.30 to 7.00; pIC50 [4]: 6.30 to 7.00
